What was measured:
insulin = assay: Plasma insulin (ELISA) and HOMA insulin resistance index after acute oral gavage; type: in vivo; settings: adult male Wistar rats
Description: The protocol was approved by the Ethics Committee for Animal Experiments of the University of Malaga.
D-Pinitol (3-0-methyl-D-chiro-inositol) was generously provided by EURONUTRA SL (https://www.euronutra.com/, Malaga, Spain), in the form of crystalline fine powder (lot: PPN-M0201). For acute treatments, D-Pinitol was dissolved in water to be administered by gavage (orally) at different concentrations (100 mg/Kg and 500 mg/Kg), drug was administered at a volume of 1 ml/kg.
After 18 hours of fasting, D-Pinitol dissolved in water was administered acutely by gavage (100 mg/kg in a first study, and 500 mg/kg in a subsequent study). After administration, the animals were sacrificed in groups at different times (being time 0 the administration of D-Pinitol). For the first study (100 mg/kg), groups of animals were sacrificed at times: 10, 20, 30, 60, 120, 240 and 360 minutes after administration; for the second study (500 mg/kg), animals were sacrificed at times: 60, 120 and 240 minutes after administration. As a control group, a group was administered only with water (by gavage).
Animals were anesthetized with sodium pentobarbital (50 mg/Kg, i.p.), blood, brain and liver samples were collected. Blood was centrifuged (2100 g for 8 min, 4° C.) and the plasma kept for further analysis. Liver and brain samples were flash-frozen in liquid N2, then stored at −80° C. until further analysis.
The plasma levels of insulin and ghrelin were determined with an enzyme-linked immunosorbent assay (ELISA) method using commercial kits: EMD Millipore Corporation (Billerica, Mass., USA) Cat. #EZRMI-13K and Cat. #EZRGRT-91K, respectively. Glucagon levels in plasma was determined with a Glucagon Enzyme Immunoassay (EIA) Kit: Cat. #RAB0202 Sigma-Aldrich (Saint Louis, Mo., USA). All serum samples were assayed in duplicate within one assay, and results were expressed in terms of the particular standard hormone.

tau protein = assay: Hippocampal tau phosphorylation and total tau (western blot) after 10 days of oral drinking; type: in vivo, Wistar rats; settings: oral by drinking 100 mg/Kg for 10 days, hippocampus
Description: (§1) Animal experimental procedures were carried out in accordance with the European Communities directive 2010/63/EU and Spanish legislation (Real Decreto 53/2013). The protocol was approved by the Research and approved by Ethics Committee for Animal Experiments of the University of Malaga, Spain. In accordance with the ARRIVE guidelines, all efforts were made to minimize animal suffering and to reduce the number of animals used per experimental group. Chronic drinking experiments on Wistar rats were performed on 20 male rats. All adult rats, ageing 2 months (≈300 g of body weight), were provided by Charles River Laboratories (Barcelona, Spain). The animals were housed individually under a standard 12 h light-dark cycle in a room with temperature and humidity control. Water and rat chow pellets were provided ad libitum throughout the course of the present study.
Caromax®-D-Pinitol (3-O-methyl-d-chiro-inositol, DPIN, 98% purity) and Caromax®-D-Chiro-inositol (cis-1,2,3-trans-3,5,6-cyclohexanehexol, DCI) were provided by Euronutra SL (Málaga, Spain). They were dissolved in water to orally daily administration by drinking and/or gavage at dose of 100 mg/Kg of body weight (BW) in a 1 ml/kg of BW volume to Zucker and Wistar rats for 4 weeks (28 days) and 10 days, respectively (FIG. 1). During the drinking treatments, the concentration of inositols in the water were updated considering the daily increase of BW of the rats and the possible loss of water by evaporation.
Brain extract. Frozen brain samples (17 mg per sample) were homogenized in 1 mL of cold RIPA lysis buffer (50 mM Tris-HCl pH 7.4, 150 mM NaCl, 0.5% NaDOC, 1 mM EDTA, 1% Triton, 0.1% SDS, 1 mM Na3VO4, 1 mM NaF) supplemented with a protease cocktail (Hoffmann-Roche). The suspension was incubated for 2 hours at 4° C., followed by centrifugation at 12,000 rpm for 15 minutes at 4° C. The supernatant was transferred to a new clean centrifuge tube, and Bradford colorimetric method was used to determine the concentration of the total protein. The protein extracts were diluted 1:1 in loading buffer (DTT 2X) and heated for 5 minutes at 99° C. before being subjected to electrophoresis.
(§2) Western Blot Analysis. The tissue protein (10-15 μg) was subjected to electrophoresis on 4-12% Criterion XT Precast Bis-Tris gels (Bio-Rad, USA) for 30 minutes at 80V and 2 h at 150V. […] Bands were quantified by densitometric analysis using ImageJ software (Rasband, WS, ImageJ, US National Institutes of Health, Bethesda, Md., USA). […] The results were expressed as the protein/α-Adaptin ratio or phosphorylated/total protein ratio and normalized to the control group (Y axis represents ‘fold mean of the control values’).
(§3) All data are expressed as mean±SEM. […]

Protein Kinase A (PKA) = assay: Hippocampal PKA (western blot) after 10 days of oral drinking; type: in vivo, Wistar rats; settings: oral by drinking 100 mg/Kg for 10 days, hippocampus, FIG. 10A.2
Description: as §1, with “study. […]” for “study.”
as §2, with “Analysis.” for “Analysis. The tissue protein (10-15 μg) was subjected to electrophoresis on 4-12% Criterion XT Precast Bis-Tris gels (Bio-Rad, USA) for 30 minutes at 80V and 2 h at 150V.”
as §3

With `COC1[C@@H](O)[C@@H](O)C(O)[C@H](O)[C@H]1O` (stereo partly drawn) [DPIN, (1S,2S,4S,5R)-6-methoxycyclohexane-1,2,3,4,5-pentol] the “insulin release into the blood circulation” value (insulin; oral 100 mg/kg, FIG. 2B) was “decreased”, the “insulin resistance measured by the HOMA index” value (insulin; oral 100 mg/kg, FIG. 2C) was “reduction” and the “insulin release into the blood circulation” value (insulin; oral 500 mg/kg, FIG. 3B) was “decreased”. For the same molecule, the “insulin resistance measured by the HOMA index” value (insulin; oral 500 mg/kg, FIG. 3D) was “reduction”, the “quantity of phospho-tau (AT8: Ser202, Thr205) compared with vehicle group” value (tau protein; FIG. 7A.1) was “dropped to more than half” and the “relative protein levels of total tau compared with vehicle group” value (tau protein; FIG. 7A.2) was “rise”. The “total amount of PKA” value (Protein Kinase A (PKA)) was “significant increase”.
